# pIC50: −log10 of the molar value.
# Tests used:
# p300 [1] = biological target: T1, p300 (Homo sapiens, UniProt Q09472); experiment: In vitro HAT assay with recombinant p300, histones and 14C acetyl-CoA; type: biochemical; settings: for Inhibition of p300 acetyltransferase in vitro: data not shown; for pIC50: in vitro HAT assay, recombinant p300 and histones, read-out: IC50, p300 acetyltransferase activity
# T1 construct: in vitro acetylation assays with purified histones and a recombinant p300 catalytic domain; purchased Enzo Life Sciences
# T1 sequence (Q09472 1287-1663 limits assumed): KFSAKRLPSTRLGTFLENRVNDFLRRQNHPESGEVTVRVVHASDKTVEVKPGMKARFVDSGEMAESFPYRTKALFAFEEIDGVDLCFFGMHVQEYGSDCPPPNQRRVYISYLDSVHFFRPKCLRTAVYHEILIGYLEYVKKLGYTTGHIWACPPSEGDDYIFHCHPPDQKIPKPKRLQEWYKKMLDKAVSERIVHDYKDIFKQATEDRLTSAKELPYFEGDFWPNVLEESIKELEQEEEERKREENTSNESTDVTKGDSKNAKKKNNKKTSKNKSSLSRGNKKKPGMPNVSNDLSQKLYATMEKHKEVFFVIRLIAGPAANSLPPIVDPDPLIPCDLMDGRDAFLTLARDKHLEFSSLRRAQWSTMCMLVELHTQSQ
# Method: To determine whether salicylate inhibits p300 and other acetyltransferases, we used in vitro acetylation assays with purified histones and a recombinant p300 catalytic domain.
# (§1) Figure 1. Salicylate inhibits CBP/p300 in vitro. (A) Recombinant p300, CBP, GCN5, or PCAF and histones were incubated with ^14C-labeled acetyl-CoA with or without sodium salicylate, separated by SDS-PAGE, analyzed by autoradiography, and quantified with Image J software. Acetylation levels are relative to those in untreated controls. (B) Thermal stability assay for sodium salicylate binding to the p300 HAT domain. Tm, melting temperature. (C) and (D) Lineweaver-Burk plots showing kinetic analysis of p300 acetyltransferase inhibition by sodium salicylate. Histone acetylation was measured with several concentrations of acetyl-CoA (C) or histone (D) in the presence or absence of sodium salicylate. DOI: http://dx.doi.org/10.7554/eLife.11156.003 Figure 1—figure supplement 1. […] (A) Dose-response data for inhibition of p300 by salicylate and salicyl-CoA. Acetylation of an H4(3–14) peptide was monitored using direct microfluidic mobility shift analysis as previously described ([Montgomery et al., 2014]; [Fanslau et al., 2010]). Error is given as the 95% confidence interval. […] Error is given as the 95% confidence interval. DOI: http://dx.doi.org/10.7554/eLife.11156.004 [drawing 1] TEXT PRINTED IN THE PICTURE: (A) Salicylate: p300 IC50 (mM): 6.12; Confidence Interval [CI95] (mM): 5.2–7.2 | (A) Salicyl-CoA: p300 IC50 (mM): […]; Confidence Interval [CI95] […] (mM): 0.78–1.4 | (B) Diflunisal-CoA: p300 IC50 (mM): 0.02; Confidence Interval [CI95] (mM): 0.02–0.03
# Recombinant HAT ([…]), either p300, CBP, PCAF, or GCN5 (Enzo Life Sciences), and 10 µg of histones (Sigma) were incubated with sodium salicylate (Sigma) in reaction buffer (50 mM HEPES, pH 8.0, 10% glycerol, 1 mM) at 30°C for 30 min and then with 0.1 mCi of ^14C acetyl-CoA at 30°C for 60 min. Reactions were stopped by adding 6x sample buffer and analyzed by SDS-PAGE. The gels were dried, and signals were obtained by autoradiography and quantified with Image J software. To quantify acetylated histone levels, we generated a standard curve from signals of lanes loaded with […] of ^14C labeled histones.
# p300 [2] = biological target: T1, p300; experiment: p300 inhibition by direct microfluidic mobility shift analysis, H4(3–14) peptide; type: biochemical; settings: for pIC50: microfluidic mobility shift, H4(3–14) peptide, 5 μM acetyl-CoA; for Fold increased potency of CoA metabolite in comparison with parent drug: ratio of p300 IC50 values
# Method: as §1
# Salicyl-CoA and diflunisal-CoA were synthesized from their parent carboxylic acids and HPLC purified according to previously reported methods ([Padmakumar et al., 1997]). The purity of each acyl-CoA was confirmed by analytical HPLC prior immediately prior to utilization ([Montgomery et al., 2014]; [Fanslau et al., 2010]). P300 inhibition assays were performed using direct microfluidic mobility shift analysis as previously described. Briefly, p300 reaction mixture (50 mM HEPES, pH 7.5, 50 mM NaCl, 2 mM EDTA, 2 mM DTT, 0.05% Triton-X-100, 50 nM p300, 2 μM FITC-histone H4 peptide) was plated in 384-well plates and allowed to equilibrate at room temperature for 10 min. Reactions were initiated by addition of acetyl-CoA (final concentration = 5 μM), bringing the final assay volume to 30 μL. Assays were quenched after 10 min (<15% product accumulation) by addition of 5 μL of 0.5 M neutral hydroxylamine and transferred to a Perkin-Elmer Lab-Chip EZ-Reader instrument for analysis. Separation conditions were: downstream voltage of −500 V, upstream voltage of −2500 V, and a pressure of −1.5 psi. Percent conversion was calculated by ratiometric measurement of substrate/product peak heights. Percent activity represents the percent conversion of KAT reactions treated with inhibitors relative to untreated control KAT reactions, and corrected for nonenzymatic acetylation. Dose-response analysis of p300 inhibition was performed in triplicate and analyzed by nonlinear least-squares regression fit to Y = 100/(1 + 10∧(Log IC50 – X)*H), where H = Hill slope (variable). IC50 values represent the concentration that inhibits 50% of KAT activity. Calculations were performed using Prism 6 (GraphPad) software.
compound,measurement,setting,value
COc1ccc2c(c1)c(CC(=O)O)c(C)n2C(=O)c1ccc(Cl)cc1 [indomethacin],Inhibition of p300 acetyltransferase in vitro,p300 [1],did not detect any inhibitory activity
"CC(=O)Oc1ccccc1C(=O)O [Acetyl- Salicylic Acid, acetylsalicylic acid]",pIC50,p300 [1],1.85
CC(C)(COP(=O)(O)OP(=O)(O)OCC1OC(n2cnc3c(N)ncnc32)C(O)C1OP(=O)(O)O)C(O)C(=O)NCCC(=O)NCCSC(=O)c1cc(-c2ccc(F)cc2F)ccc1O (centres unmarked) [diflunisal-CoA],pIC50,p300 [2],4.70
same,Fold increased potency of CoA metabolite in comparison with parent drug,p300 [2],52 fold
CC(=O)Nc1ccc(O)cc1 [acetaminophen],Inhibition of p300 acetyltransferase in vitro,p300 [1],did not detect any inhibitory activity
"Nc1ccc(C(=O)O)c(O)c1 [4-Amino- Salicylic Acid, 4-aminosalicylic acid]",pIC50,p300 [1],1.91
COc1c(C)c2c(c(O)c1C/C=C(\C)CCC(=O)O)C(=O)OC2 [mycophenolic acid],pIC50,p300 [1],3.18
CCOc1cc(CC(=O)N[C@@H](CC(C)C)c2ccccc2N2CCCCC2)ccc1C(=O)O [repaglinide],pIC50,p300 [1],3.43
"Nc1ccc(O)c(C(=O)O)c1 [5-Amino- Salicylic Acid, 5-aminosalicylic acid]",pIC50,p300 [1],2.12
CC(C)(COP(=O)(O)OP(=O)(O)OC[C@H]1O[C@@H](n2cnc3c(N)ncnc32)[C@H](O)[C@@H]1OP(=O)(O)O)[C@@H](O)C(=O)NCCC(=O)NCCSC(=O)c1ccccc1O [salicyl-CoA],pIC50,p300 [2],3.66
same,Fold increased potency of CoA metabolite in comparison with parent drug,p300 [2],28 fold
